From patent publication US9062095B2, “Mutant double cyclized receptor peptides inhibiting β1-adrenoceptor antibodies” (JULIUS-MAXIMILIANS-UNIVERSTITAT-WURZBURG, priority 2007, dated 2015)
Positions of bridges follow the written chain, without caps; N, C: chain ends.

Experiments:
[1] = system: beta1-receptor antibodies; experiment: in vivo prevention study: five prophylactic peptide applications, serum antibody-titers by ELISA; set-up: species or system rat; conditions: 1.0 mg/kg body weight i.v., 4-weekly, prevention protocol (FIG. 12)
Description: FIG. 12 is a diagram resuming the in vivo blocking capacity of in total five (prophylatic) applications of various linear and cyclic beta1-ECII-peptides, started 3 months after the first immunization (and two subsequent beta1-ECII/GST-antigen-boosts, corresponding to a prevention protocol). Serum-titers of the beta1-receptor antibodies were determined before and 18-20 h after each peptide injection (abscissa, time in months) and are given in % of the corresponding antibody-titers of immunized untreated rats (y-axis, ordinate). The injected peptides were: 25AA Cys/Cys linear peptide (black squares), […] (white squares), 18AA Cys/Cys cyclopeptide (black diamond), 18AA Cys/Ser cyclopeptide mutant (white diamonds), and the 18AA Cys/Ser linear peptide mutant (vertically hatched diamonds). […] Black circles indicate antibody-titers of untreated regularly (every 4 weeks) immunized animals serving as reference, set at 100%.
The in-vivo blocking effects of both 25AA and 18AA Cys/Ser mutant cyclopeptides (with a Gln closure site), the 18AA Ser/Cys mutant cyclopeptide, and a mutated linear 18AA Cys/Ser peptide were analyzed after intravenous (i.v.) injection of 1.0 mg/kg body weight (Bw) of each construct into freshly immunized antibody-positive rats (i.e., use of cyclo-peptides in a kind of “prevention” study), with a first cyclopeptide-application 3 months after the initial immunization (and two subsequent boost at months 2 and 3). In total, five prophylactic applications of the various constructs were given at 4-weekly intervals, always two weeks after the monthly continued antigen boost. Sera were drawn 18-20 hours after i.v. injection and assayed for reactivity by ELISA using the 3 Cys-containing linear 25AA Cys/Cys-peptide as an antigen (FIG. 12).

anti-β1-ECII antibodies = experiment: ELISA-competition assay: peptide preincubated with sera/IgG of immunized antibody-positive rats, linear 25AA Cys/Cys-peptide as antigen; assay type: binding, rat; conditions: for decrease in circulating free anti-beta1-ECII antibodies: n=6 sera (FIG. 11)
Description: FIG. 9 is a diagram composed of two major-(upper and lower) panels resuming the blocking effect of both 25AA- and 18AA-cyclopeptide mutants having a Gln closure site, as well as 18AA cyclopeptide mutants having a D-Glu closure site after preincubation (12 h, 4° C., rotating incubation) with sera isolated from 69 different immunized antibody-positive rats in an ELISA-competition assay using the 3 Cys-containing linear 25AA Cys/Cys-peptide as an antigen. The upper panel depicts rat sera preferentially reacting with the Cys/Ser mutated cyclopeptides (type1 reaction, n=64), separated in cyc25AA(Gln)-peptides (left) and cyc18AA(Gln and D-Glu)-peptides (right). The lower panel depicts the rat sera reacting with both the Cys/Ser and the Ser/Cys mutated cyclopeptides (type2 reaction, n=5), again separated in the results obtained with cyc25AA(Gln)-peptides (left) and cyc18AA(Gln and D-Glu)-peptides (right).
FIG. 11 is a diagram resuming the dose-dependent (x-axis, abscissa: fold molar excess of specific peptides) blocking capacity of various linear and cyclic beta1-ECII-peptides given in % of the unblocked antibody-titer (y-axis, ordinate), including 25AA Cys/Cys linear peptides (black squares), 25AA Cys/Ser cyclopeptide mutants (white squares), 18AA Cys/Cys cyclo-peptides (black diamonds), 18AA Cys/Ser cyclopeptide mutants (white diamonds), and 18AA Cys/Ser linear peptide mutants (vertically hatched diamonds) in an ELISA competition assay performed with sera from n=6 randomly chosen immunized antibody-positive rats.
FIGS. 27A and B depict the in vitro blocking (=neutralization) capacity of various cysteine-containing cyclopeptide variants of the second extracellular loop (ECII) of the human beta1-adrenergic receptor, determined by testing n=6 individual sera (27A) of immunized beta1-ECII-antibody-positive rats after over-night incubation with the indicated cyclopeptides (12-14 h, 4° C.) by ELISA. Columns in 27A represent the receptor-antibody blocking efficiency of the indicated cyclopeptides in % of the antibody-(ELISA-)signals obtained with unblocked antibody-positive rat sera. Columns in 27B represent the mean blocking efficiency for each cyclopeptide, error bars indicate ±SEM.
The blocking capacity of β1-ECII-18AA cyclopeptide mutants (Cys13-Ser14 or Ser13-Cys14 mutation having an additional D-Glu-Gln exchange, e.g. at the ring closure site) was compared with the 3 Cys-containing 25AA or 18AA Cys/Cys cyclopeptides after preincubation (12 h, 4° C., rotating incubation over-night) of different numbers of sera from immunized antibody-positive rats in an ELISA-competition assay using the 3 Cys-containing linear 25AA Cys/Cys-peptide as an antigen. FIGS. 4, 5, and 7-10 show the results from measurements performed with sera of n=12 up to n=82 immunized antibody-positive rats using different cyclopeptides of the present invention.

[2] = system: anti-beta1-ECII antibody-secreting cells (ASC); experiment: ELISPOT-assay with B-cells from bone marrow or spleen of prophylactically treated rats; assay type: in vivo, rat; conditions: prophylactically treated versus untreated immunized rats, n=3-4 (FIG. 13)
Description: Cys/Ser, horizontally hatched columns). For the assays, ELIspot plates were coated overnight with the specific antigen (GST/beta1-ECII-FP) in 0.05 mol/1 Tris buffer, pH 9.4.; then the plates were washed 3 times and blocked with BSA for 3 hours at 37° C. Subsequently, the plates were incubated overnight at 37° C. with B-cells from either spleen or bone marrow (cultured in RPMI 1640/X-VIVO-15 medium supplemented with 10% fetal calf serum (FCS)) with 1×10^6 to 1×10^3 cells per well. After 12 hours the B-cells were discarded and the plates with the B-cell secreted IgG bound were washed several times (PBS/0.5° A) Tween) before the addition of alkaline phos-phatase conjugated secondary anti-rat IgG (0.3 μg/ml) to detect bound rat IgG. Then the plates were incubated for another 3 hours at 37° C., washed several times with PBS/0.5% Tween, and developed using LMP/BICP 5:1 (1 ml per well; “LMP” means low melting agarose, and “BICP” means 5-bromo-4-chloro-3-indolyl phosphate p-toluidine salt, a blue-colored dye) allowing for a quantification of the blue spots obtained, with each spot representing an antigen-specific IgG secreting spleen or bone-marrow cell.
This finding was confirmed by ELIspot analysis of bone marrow and spleen cell preparations of selected cyclopeptide-treated versus untreated immunized rats (n=3).

[3] = system: beta1-ECII receptor antibody-titers; experiment: in vivo therapy study cyc22AA versus cyc18AA Cys/Ser in rats immunized over 8 months: antibody-titers; set-up: species or system rat; conditions: injections every 4 weeks, start at month 8; mean ±SEM (FIG. 28A)
Excerpt: FIGS. 28A and B depict the in vivo blocking (=neutralization) capacity of two cysteine-containing 18AA or 22AA cyclopeptide-mutants of the second extracellular loop (ECII) of the human beta1-adrenergic receptor upon therapeutic injection of the different constructs into rats regularly immunized since 8 months (first=basic immunization followed by 7 antigen-boosts every 4 weeks). The effects of four to five subsequent cyclopeptide-injections every 4 weeks are shown. FIG. 28A depicts the mean values±SEM of each of the treated groups of immunized beta1-ECII-antibody positive cardiomyopathic rats (animal number per group is given in the legend). […] The remaining receptor antibody-titers after each injection in % of the antibody-titers at start therapy (month 8) are depicted (columns). Error bars indicate ±SEM. Numbers in columns indicate the number of (subsequent) monthly injection.
FIG. 28B depicts the time course of antibody-titers after 4 subsequent cyclopeptide-injections, determined before and 20-22 hours after application of the indicated constructs. Values are given in percent of increase or decrease in the respective antibody-titers after each cyclopeptide-injection compared with the antibody-titer determined at start of therapy (month 8). […]

[4] = system: immunized beta1-ECII-antibody positive cardiomyopathic rats; experiment: echocardiographic follow-up of the cyc22AA versus cyc18AA therapy study; assay type: in vivo, rat; conditions: after 4 months of treatment, 1.0 mg/kg Bw (FIG. 29)
Excerpt: FIG. 29A is a diagram showing the time course (month 0 to 12) of the internal end-systolic and end-diastolic left ventricular diameters (LVES, LVED) of GST/beta1-ECII-immunized untreated (black circles) versus GST/beta1-ECII-immunized animals treated with the indicated various cyclopeptides (see legend) as determined by 2D- and M-mode echocardiography (echocardiographic system: Visual Sonics, Vevo 770 (version V2.2.3), equipped with a 15-17.5 MHz transducer), whereby LVES/LVED is left ventricular end-systolic diameter/left ventricular end-diastolic diameter.
FIG. 29B is a diagram depicting the time course (month 0 to 12) of the “Cardiac index” (CI) in ml/min/g (body weight) as determined by 2D- and Doppler-echocardiography (echocardiographic system see above).
In addition, echocardiographic follow-up data after 4 months of treatment also show a superiority of cyc22AA mutants compared with the cyc18AA Cys/Ser mutant regarding their cardioprotective effects in vivo, as assessed by the decrease in both left ventricular end-diastolic (LVED) and end-systolic (LVES) diameters (FIG. 29A), and an increase in “Cardiac Index” (CI, given in ml/min/g body weight; see FIG. 29B), as determined by 2 dimensional- and Doppler-echocardiography using a Visual Sonics echocardiographic system (Vevo 770, version V2.2.3), equipped with a 17.5 MHz transducer).

Substance | antibody-titer decrease after 5 injections, compared with untreated immunized animals [1] | decrease in circulating free anti-beta1-ECII antibodies (anti-β1-ECII antibodies; 8-fold molar excess of peptide) | decrease in circulating free anti-beta1-ECII antibodies (anti-β1-ECII antibodies; 20-fold molar excess of peptide) | decrease in circulating free anti-beta1-ECII antibodies (anti-β1-ECII antibodies; 80-fold molar excess of peptide) | number of specific anti-beta1-ECII antibody-secreting cells (ASC) in spleen and bone marrow [2] | antibody-titer remaining after 4 injections in percent of the titer at start of therapy [3] | cardioprotective effects in vivo (decrease in LVED and LVES diameters, increase in Cardiac Index) [4] | blocking-efficiency versus unblocked sera (anti-β1-ECII antibodies; n=6 sera, incubation 12-14 h, 4° C., mean ±SEM (FIG. 27))
Ala-Asp-Glu-Ala-Arg-Arg-Cys-Tyr-Asn-Asp-Pro-Lys-Cys-Ser-Asp-Phe-Val-Gln (cyclo(ADEARRCYNDPKCSDFVQ); disulfide 7-13 (inferred)) [linear 18AA Cys/Ser peptides, reference compound] | 4.5±11% | 24% | 35% | about 50% | no effect |  |  | 
Cyclo-Arg-Ala-Glu-Ser-Asp-Glu-Ala-Arg-Arg-Cys-Tyr-Asn-Asp-Pro-Lys-Cys-Ser-Asp-Phe-Val-Thr-Gly (cyclo(RAESDEARRCYNDPKCSDFVTG); disulfide 10-16 (inferred)) [cyc22AA Cys/Ser] |  |  |  |  |  | 9.0±2.2% | superiority | 74.9±5.0%
